US11607458B2 (Georgia State University Research Foundation, Inc, priority 2017, dated 2023)
Several values for one entry are separate records, joined by “and”; a condition that tells them apart may be missing. Equal entries are not always repeated.

Assays:
[1] = HPLC studies of reaction kinetics of tetrazine prodrugs with cyclooctyne alkynes (Kobs, second-order rate constant k2); assay type: physicochemical; settings: for Kobs: prodrug 25 μM; for k2 at 37° C. (second order rate constant) / k2 at r.t (second order rate constant): PBS containing 10% DMSO, n = 3
Protocol: Stock solution preparation. Each of the tetrazine prodrugs (compounds 1b, 1c, and 1d) was dissolved in DMSO to afford a 500-μM stock solution. Each of the alkynes (compounds 2a, 2b, 2c, and 2d) was dissolved in DMSO to afford a 50-mM stock solution. Doxorubicin (Dox) and dansylamino compound (DA) 1.1b were each dissolved in DMSO to afford 1-mM stock solutions.
(§1) HPLC method A.: mobile phase A (10 mM NaH2PO4 in water, pH=5.0) and mobile phase B (ACN), flow rate: 1 mL/min, running time: 30 min, the gradient elution method: 25% B from 0 to 6 min, 25% to 50% B from 6 to 8 min, 50% B from 8 to 15 min, 50% to 99% B from 15 to 20 min, 99% B from 20 to 25 min, 99% to 25% B from 25 to 30 min. Detection wavelength: 256 nm. Column: Waters C18 3.5 μM, 4.6×100 mm. Injection volume: 20 μL.
as §1, with “method B:” for “method A.:”, “method: 30%” for “method: 25%”, “min, 30%” for “min, 25%”, “25 min.” for “25 min,”, “to 30%” for “to 25%”, “Detection wavelength 1: 256, detection wavelength 2: 337” for “Detection wavelength: 256”
(§2) General procedures HPLC studies of reaction kinetics. To three 20-ml vials with 9 mL PBS were added a solution of tetrazine prodrug (500 μL, 500 μM). 350 μL, 300 μL and 250 μL DMSO were added to vial respectively, and then 150 μL, 200 μL and 250 μL of the alkyne solution (50 mM in DMSO) were added to the vials to afford final concentrations of alkyne 0.75 mM, 1 mM and 1.25 mM in PBS (10% DMSO, 25 μM prodrug) respectively. The reaction was stirred at r.t or 37° C. respectively. Every 30 min about 500 μL reaction mixtures were taken out and 20 μL of them were injected into the HPLC by the autosampler; the rest of them were poured back to the reaction mixture. (Note: In the cases of prodrugs 1d or 1b reacting with alkyne 2d at 37° C., the final concentrations of 2d in the kinetic studies were 250 μM, 300 μM and 350 μM).
Determination of second-order rate constants. The reaction rate constant, kobs, was calculated for each concentration of the alkyne by fitting the prodrug areas versus time using eq. 1: Y=A exp(−kobst) eq. 1 where Y is the prodrug area, and t is time. The pseudo-first-order rate constant, kobs, was then plotted against the concentration of alkyne to yield the second-order rate constant using eq 2: kobs=k2[Alkyne] eq. 2 where k2 is the second-order rate constant.

[2] = Release of the parent drug (Dox / dansyl amine) from prodrugs treated with alkynes, monitored by HPLC; assay type: physicochemical; settings: r.t, PBS 10% DMSO
Protocol: (§3) Standard curve of Dox concentration measurement. To four HPLC vials containing 0.9 mL PBS (size: 1.5 mL) were added 25, 15, 20, 10 μL Dox stock solution (1 mM) respectively. Then defined amounts DMSO (975, 985, 980, and 990 μL) were added to each vial to afford final concentration of four vials were 25, 15, 20, 10 μM in PBS (10% DMSO), respectively. The samples were analyzed with HPLC method A. Dox retention time: 4.0 min.
as §3, with “for DA” for “of Dox”, “B. DA” for “A. Dox”, “5.8” for “4.0”
as §2
Results. The results from the reaction kinetics studies of the tetrazine-cyclooctyne system are summarized below in Table 4. Prodrugs 1d or 1b (25 μM) were treated with alkynes 2d, 2c ,2a, or 2b at different concentrations at room temperature (r.t.) or 37° C., respectively. The prodrug consumption and release of the parent drug were monitored by HPLC (Table 4).

[3] = 37° C., alkyne 2b 0.75 mM, Expt. 1
[4] = 37° C., alkyne 2b 0.75 mM, Expt. 2
[5] = 37° C., alkyne 2b 0.75 mM, Expt. 3
[6] = 37° C., alkyne 2b 1.00 mM, Expt. 1
[7] = 37° C., alkyne 2b 1.00 mM, Expt. 2
[8] = 37° C., alkyne 2b 1.00 mM, Expt. 3
[9] = 37° C., alkyne 2b 1.25 mM, Expt. 1
[10] = 37° C., alkyne 2b 1.25 mM, Expt. 2
[11] = 37° C., alkyne 2b 1.25 mM, Expt. 3
[12] = r.t, alkyne 2b 0.75 mM, Expt. 1
[13] = r.t, alkyne 2b 0.75 mM, Expt. 2
[14] = r.t, alkyne 2b 0.75 mM, Expt. 3
[15] = r.t, alkyne 2b 1.00 mM, Expt. 1
[16] = r.t, alkyne 2b 1.00 mM, Expt. 2
[17] = r.t, alkyne 2b 1.00 mM, Expt. 3
[18] = r.t, alkyne 2b 1.25 mM, Expt. 1
[19] = r.t, alkyne 2b 1.25 mM, Expt. 2
[20] = r.t, alkyne 2b 1.25 mM, Expt. 3

For `COc1cccc2c1C(=O)c1c(O)c3c(c(O)c1C2=O)CC(O)(C(=O)CO)CC3OC1CC(NC(=O)c2nnc(-c3ccc(OCc4cn(CCCCCCCCC[P+](c5ccccc5)(c5ccccc5)c5ccccc5)nn4)cc3)nn2)C(O)C(C)O1` (stereo not drawn) [1c], the Kobs [1, 3] was 0.711 h⁻¹, the Kobs [1, 4] was 0.701 h⁻¹ and the Kobs [1, 5] was 0.714 h⁻¹. It also gave a Kobs [1, 6] of 0.921 h⁻¹, a Kobs [1, 7] of 0.902 h⁻¹ and a Kobs [1, 8] of 0.871 h⁻¹. For the same compound, the Kobs [1, 9] was 1.21 h⁻¹, the Kobs [1, 10] was 1.15 h⁻¹ and the Kobs [1, 11] was 1.09 h⁻¹. For the same compound, the “k2 at 37° C. (second order rate constant)” value ([1]; alkyne 2b, 37° C.) was 0.25 ± 0.05 M⁻¹ s⁻¹, the “k2 at r.t (second order rate constant)” value ([1]; alkyne 2b, r.t) was 0.091 ± 0.013 M⁻¹ s⁻¹ and the Kobs [1, 12] was 0.296 h⁻¹. The Kobs [1, 13] was 0.305 h⁻¹, the Kobs [1, 14] was 0.291 h⁻¹ and the Kobs [1, 15] was 0.331 h⁻¹. It also gave a Kobs [1, 16] of 0.356 h⁻¹, a Kobs [1, 17] of 0.359 h⁻¹ and a Kobs [1, 18] of 0.445 h⁻¹. For the same compound, the Kobs [1, 19] was 0.465 h⁻¹, the Kobs [1, 20] was 0.474 h⁻¹ and the “Time of the Dox peak (in brackets in the Dox Peak % cell)” value ([2]; alkyne 2b) was 18 h.

`C#CCOc1ccc(-c2nnc(C(=O)NCCCOCCOCCOCCCNS(=O)(=O)c3cccc4c(N(C)C)cccc34)nn2)cc1` [1d] gave a Kobs [1, 3] of 0.411 h⁻¹, a Kobs [1, 4] of 0.388 h⁻¹ and a Kobs [1, 5] of 0.353 h⁻¹. For the same compound, the Kobs [1, 6] was 0.548 h⁻¹, the Kobs [1, 7] was 0.511 h⁻¹ and the Kobs [1, 8] was 0.453 h⁻¹. It also gave a Kobs [1, 9] of 0.695 h⁻¹, a Kobs [1, 10] of 0.636 h⁻¹ and a Kobs [1, 11] of 0.561 h⁻¹. It also gave a Kobs ([1]; 37° C., alkyne 2c 0.75 mM, Expt. 1) of 0.0506 h⁻¹, a Kobs ([1]; 37° C., alkyne 2c 0.75 mM, Expt. 2) of 0.0584 h⁻¹ and a Kobs ([1]; 37° C., alkyne 2c 0.75 mM, Expt. 3) of 0.0599 h⁻¹. The Kobs ([1]; 37° C., alkyne 2c 1.00 mM, Expt. 1) was 0.0670 h⁻¹, the Kobs ([1]; 37° C., alkyne 2c 1.00 mM, Expt. 2) was 0.0781 h⁻¹ and the Kobs ([1]; 37° C., alkyne 2c 1.00 mM, Expt. 3) was 0.0801 h⁻¹. The Kobs ([1]; 37° C., alkyne 2c 1.25 mM, Expt. 1) was 0.083 h⁻¹, the Kobs ([1]; 37° C., alkyne 2c 1.25 mM, Expt. 2) was 0.0978 h⁻¹ and the Kobs ([1]; 37° C., alkyne 2c 1.25 mM, Expt. 3) was 0.101 h⁻¹. For the same compound, the Kobs ([1]; 37° C., alkyne 2d 0.25 mM, Expt. 1) was 1.82 h⁻¹, the Kobs ([1]; 37° C., alkyne 2d 0.25 mM, Expt. 2) was 1.64 h⁻¹ and the Kobs ([1]; 37° C., alkyne 2d 0.25 mM, Expt. 3) was 1.90 h⁻¹. It also gave a Kobs ([1]; 37° C., alkyne 2d 0.3 mM, Expt. 1) of 2.15 h⁻¹, a Kobs ([1]; 37° C., alkyne 2d 0.3 mM, Expt. 2) of 1.94 h⁻¹ and a Kobs ([1]; 37° C., alkyne 2d 0.3 mM, Expt. 3) of 2.26 h⁻¹. For the same compound, the Kobs ([1]; 37° C., alkyne 2d 0.35 mM, Expt. 1) was 2.53 h⁻¹, the Kobs ([1]; 37° C., alkyne 2d 0.35 mM, Expt. 2) was 2.25 h⁻¹ and the Kobs ([1]; 37° C., alkyne 2d 0.35 mM, Expt. 3) was 2.65 h⁻¹. For the same compound, the “k2 at 37° C. (second order rate constant)” value ([1]; alkyne 2b, 37° C.) was 0.14 M⁻¹ s⁻¹ and 0.14 ± 0.04 M⁻¹ s⁻¹, the “k2 at r.t (second order rate constant)” value ([1]; alkyne 2b, r.t) was 0.042 M⁻¹ s⁻¹ and 0.042 ± 0.012 M⁻¹ s⁻¹ and the “k2 at 37° C. (second order rate constant)” value ([1]; alkyne 2c, 37° C.) was 0.021 M⁻¹ s⁻¹ and 0.021 ± 0.005 M⁻¹ s⁻¹. For the same compound, the “k2 at r.t (second order rate constant)” value ([1]; alkyne 2c, r.t) was 0.0075 M⁻¹ s⁻¹ and 0.0075 ± 0.0009 M⁻¹ s⁻¹, the “k2 at 37° C. (second order rate constant)” value ([1]; alkyne 2d, 37° C.) was 1.9 M⁻¹ s⁻¹ and 1.9 ± 0.4 M⁻¹ s⁻¹ and the “k2 at r.t (second order rate constant)” value ([1]; alkyne 2d, r.t) was 0.25 M⁻¹ s⁻¹ and 0.25 ± 0.06 M⁻¹ s⁻¹. It also gave a Kobs [1, 12] of 0.125 h⁻¹, a Kobs [1, 13] of 0.115 h⁻¹ and a Kobs [1, 14] of 0.13 h⁻¹. For the same compound, the Kobs [1, 15] was 0.155 h⁻¹, the Kobs [1, 16] was 0.148 h⁻¹ and the Kobs [1, 17] was 0.175 h⁻¹. The Kobs [1, 18] was 0.199 h⁻¹, the Kobs [1, 19] was 0.180 h⁻¹ and the Kobs [1, 20] was 0.22 h⁻¹. It also gave a Kobs ([1]; r.t, alkyne 2c 0.75 mM, Expt. 1) of 0.0203 h⁻¹, a Kobs ([1]; r.t, alkyne 2c 0.75 mM, Expt. 2) of 0.0201 h⁻¹ and a Kobs ([1]; r.t, alkyne 2c 0.75 mM, Expt. 3) of 0.0217 h⁻¹. For the same compound, the Kobs ([1]; r.t, alkyne 2c 1.00 mM, Expt. 1) was 0.0273 h⁻¹, the Kobs ([1]; r.t, alkyne 2c 1.00 mM, Expt. 2) was 0.0269 h⁻¹ and the Kobs ([1]; r.t, alkyne 2c 1.00 mM, Expt. 3) was 0.0289 h⁻¹. It also gave a Kobs ([1]; r.t, alkyne 2c 1.25 mM, Expt. 1) of 0.0339 h⁻¹, a Kobs ([1]; r.t, alkyne 2c 1.25 mM, Expt. 2) of 0.0324 h⁻¹ and a Kobs ([1]; r.t, alkyne 2c 1.25 mM, Expt. 3) of 0.0359 h⁻¹. The Kobs ([1]; r.t, alkyne 2d 0.75 mM, Expt. 1) was 0.752 h⁻¹, the Kobs ([1]; r.t, alkyne 2d 0.75 mM, Expt. 2) was 0.704 h⁻¹ and the Kobs ([1]; r.t, alkyne 2d 0.75 mM, Expt. 3) was 0.756 h⁻¹. The Kobs ([1]; r.t, alkyne 2d 1.00 mM, Expt. 1) was 0.980 h⁻¹, the Kobs ([1]; r.t, alkyne 2d 1.00 mM, Expt. 2) was 0.802 h⁻¹ and the Kobs ([1]; r.t, alkyne 2d 1.00 mM, Expt. 3) was 1.01 h⁻¹. The Kobs ([1]; r.t, alkyne 2d 1.25 mM, Expt. 1) was 1.20 h⁻¹, the Kobs ([1]; r.t, alkyne 2d 1.25 mM, Expt. 2) was 1.10 h⁻¹ and the Kobs ([1]; r.t, alkyne 2d 1.25 mM, Expt. 3) was 1.26 h⁻¹. The “Time of the Dox peak (in brackets in the Dox Peak % cell)” value ([2]; alkyne 2b) was 16 h, the “Time of the Dox peak (in brackets in the Dox Peak % cell)” value ([2]; alkyne 2c) was 20 h and the “Time of the Dox peak (in brackets in the Dox Peak % cell)” value ([2]; alkyne 2d) was 48 h.
